Test results: article PMC9119168 (Antiviral Research, 2022)

Key:
SARS-CoV-2 Mac1 [1] = target: T1, SARS-CoV-2 Mac1 (Severe acute respiratory syndrome coronavirus 2, UniProt P0DTD1); test: Differential scanning fluorimetry; assay type: binding
SARS-CoV-2 Mac1 [2] = target: T1, SARS-CoV-2 Mac1; conditions: read-out: IC50 Mac1 mono-ARH activity; ref Dasovich et al., 2022; cited from earlier work
mammalian cells = conditions: cited from earlier work
Mac1 = conditions: ref Ni et al., 2021; cited from earlier work
SARS-CoV Mac1 = SARS-CoV Mac1 (Severe acute respiratory syndrome coronavirus, UniProt P0C6X7); assay type: binding; conditions: read-out: AS assay IC50 SARS-CoV
MERS-CoV Mac1 = MERS-CoV Mac1 (Middle East respiratory syndrome-related coronavirus, UniProt K9N7C7); assay type: binding; conditions: read-out: IC50 AS MERS
Chain of MERS-CoV Mac1 (K9N7C7 1110-1276 limits assumed): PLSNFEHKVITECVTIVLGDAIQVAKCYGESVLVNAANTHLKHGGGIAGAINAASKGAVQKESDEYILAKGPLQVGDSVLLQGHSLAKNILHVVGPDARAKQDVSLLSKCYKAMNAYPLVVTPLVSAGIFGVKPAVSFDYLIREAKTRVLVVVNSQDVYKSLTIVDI

Nc1ncnc2c1ncn2[C@@H]1O[C@H](COP(=O)(O)OP(=O)(O)OP(=O)(O)O)[C@@H](O)[C@H]1O [ATP]
thermal shift of Mac1 in DSF (in words) (SARS-CoV-2 Mac1 [1]): no effect

Cc1nc(Nc2ncc(C(=O)Nc3c(C)cccc3Cl)s2)cc(N2CCN(CCO)CC2)n1 [Dasatinib]
IC50 (SARS-CoV-2 Mac1 [2]): ~50000 nM | toxicity to mammalian cells (in words) (mammalian cells): toxic to mammalian cells

N#C[C@@]1(c2ccc3c(N)ncnn23)O[C@H](CO)[C@@H](O)[C@H]1O [GS-441524]
binding to Mac1 (in words) (Mac1): bound to Mac1

Nc1ncnc2c1ncn2[C@@H]1O[C@H](COP(=O)(O)OP(=O)(O)OC[C@H]2OC(O)[C@H](O)[C@@H]2O)[C@@H](O)[C@H]1O (stereo partly drawn) [ADP-ribose]
IC50 (SARS-CoV Mac1): 240 nM | IC50 (MERS-CoV Mac1): 1250 ± 230 nM
